US7138361B2, “Herbicidal heterocycles” (E. I. du Pont de Nemours and Company, priority 2000, dated 2006)

Key:
Assay type in all cases: in vivo
[1] = tested on: Surinam grass (Brachiaria decumbens); test: Test B preemergence
How it was run: (§1)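 Visual injury scores, 0 = no effect to 100 = complete control, assigned against controls after 13 to 15 days in the greenhouse. Compounds formulated in non-phytotoxic solvent plus surfactant and applied to soil after planting (pre) or onto foliage of 1- to 4-leaf plants (post).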

[2] = tested on: lambsquarters (Chenopodium album); test: Test B preemergence
How it was run: as §1

[3] = tested on: cocklebur (Xanthium strumarium); test: Test B preemergence
How it was run: as §1

[4] = tested on: morning glory (Ipomoea hederacea); test: Test B preemergence
How it was run: as §1

corn (Zea mays) [5] = test: Test B preemergence
How it was run: as §1

[6] = tested on: barnyardgrass (Echinochloa crus-galli); test: Test B preemergence
How it was run: as §1

[7] = tested on: velvetleaf (Abutilon theophrasti); test: Test B preemergence
How it was run: as §1

[8] = tested on: crabgrass (Digitaria sanguinalis); test: Test B preemergence
How it was run: as §1

[9] = tested on: pigweed (Amaranthus retroflexus); test: Test B preemergence
How it was run: as §1

rice (Oryza saliva) [10] = test: Test B preemergence
How it was run: as §1

[11] = tested on: giant foxtail (Setaria faberii); test: Test B preemergence
How it was run: as §1

Sunflower = test: Test C preemergence; conditions: Rate 250 g/ha, scale 0 to 100, 0 no effect, 100 complete control
[12] = tested on: Surinam grass (Brachiaria decumbens); test: Test B postemergence
How it was run: as §1

wild oat (Avena fatua) = test: Test B postemergence
How it was run: as §1

[13] = tested on: blackgrass (Alopecurus myosuroides); test: Test B postemergence
How it was run: as §1

[14] = tested on: lambsquarters (Chenopodium album); test: Test B postemergence
How it was run: as §1

[15] = tested on: cocklebur (Xanthium strumarium); test: Test B postemergence
How it was run: as §1

[16] = tested on: morning glory (Ipomoea hederacea); test: Test B postemergence
How it was run: as §1

corn (Zea mays) [17] = test: Test B postemergence
How it was run: as §1

[18] = tested on: barnyardgrass (Echinochloa crus-galli); test: Test B postemergence
How it was run: as §1

[19] = tested on: velvetleaf (Abutilon theophrasti); test: Test B postemergence
How it was run: as §1

[20] = tested on: crabgrass (Digitaria sanguinalis); test: Test B postemergence
How it was run: as §1

[21] = tested on: pigweed (Amaranthus retroflexus); test: Test B postemergence
How it was run: as §1

[22] = tested on: wheat (Triticum aestivum); test: Test B postemergence
How it was run: as §1

[23] = tested on: giant foxtail (Setaria faberii); test: Test B postemergence
How it was run: as §1

rice (Oryza saliva) [24] = test: Test C flooded paddy test; conditions: for Rice plant response rating: Flooded Paddy, scale 0 to 100, 0 no effect, 100 complete control; for Plant response rating, Rice: flooded paddy test, scale 0 to 100 (0 no effect, 100 complete control)
How it was run: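 Greenhouse-maintained for 12 to 14 days after treatment, the paddy plants (2-leaf stage at application) were scored visually against controls. A score of 0 denotes no effect and a score of 100 denotes complete control.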

Nightshade = test: Test C preemergence; conditions: Rate 500 g/ha, visual evaluation after 12 to 14 days
[25] = Preemergence, Rate 500 g/ha, scale 0 to 100, 0 no effect, 100 complete control
[26] = preemergence, Rate 125 g/ha, scale of 0 to 100 where 0 is no effect and 100 is complete control, 13 to 15 days
[27] = Rate 125 g/ha, scale 0 to 100, 0 no effect, 100 complete control
[28] = Rate 500 g/ha, scale 0 to 100, 0 is no effect, 100 is complete control, 13 to 15 days
[29] = Rate 125 g/ha, scale 0 (no effect) to 100 (complete control), 13 to 15 days

CC(C)OC(=O)c1cccc(N2CCC(n3ccc(C(C)(C)C)n3)C2=O)c1 (stereo not drawn) [Compound 124]
40: Plant response rating, Surinam grass [1, 25]
60: Plant response rating, Morningglory [4, 25]
80: Plant response rating, Pigweed [9, 26]
0: Plant response rating, Surinam grass [1, 26] | Plant response rating, Cocklebur [3, 25] | Plant response rating, Cocklebur [3, 26] | Plant response rating, Morningglory [4, 26] | Plant response rating, Corn (corn (Zea mays) [5]; [25]) | Plant response rating, Corn (corn (Zea mays) [5]; [26]) | Plant response rating, Velvetleaf [7, 25] | Plant response rating, Velvetleaf [7, 26] | Plant response rating, Rice (rice (Oryza saliva) [10]; [25]) | Plant response rating, Rice (rice (Oryza saliva) [10]; [26]) | Plant response rating, Sunflower (Sunflower) | Plant response rating, Surinam grass [12, 27] | Plant response rating, Surinam grass [12, 28] | Plant response rating, Wild Oat (wild oat (Avena fatua); [27]) | Plant response rating, Blackgrass [13, 27] | Plant response rating, Morningglory [16, 27] | Plant response rating, Corn (corn (Zea mays) [17]; [27]) | Plant response rating, Corn (corn (Zea mays) [17]; [28]) | Plant response rating, Barnyardgrass [18, 27] | Plant response rating, Barnyardgrass [18, 28] | Plant response rating, Velvetleaf [19, 27] | Plant response rating, Crabgrass [20, 27] | Plant response rating, Pigweed [21, 27] | Plant response rating, Wheat [22, 27] | Plant response rating, Foxtail, Giant [23, 27] | Rice plant response rating (rice (Oryza saliva) [24]; Rate 250 g/ha) | Rice plant response rating (rice (Oryza saliva) [24]; Rate 500 g/ha) | Plant response rating, Rice (rice (Oryza saliva) [24]; Rate 62 g/ha) | Plant response rating, Rice (rice (Oryza saliva) [24]; Rate 125 g/ha)
90: Plant response rating, Cocklebur [15, 28]
30: Plant response rating, Crabgrass [8, 26]
50: Plant response rating, Foxtail, Giant [11, 26]
100: Plant response rating, Lambsquarters [2, 25] | Plant response rating, Lambsquarters [2, 26] | Plant response rating, Barnyardgrass [6, 25] | Plant response rating, Crabgrass [8, 25] | Plant response rating, Pigweed [9, 25] | Plant response rating, Foxtail, Giant [11, 25]
70: Plant response rating, Barnyardgrass [6, 26]
20: Plant response rating, Lambsquarters [14, 27] | Plant response rating, Cocklebur [15, 27]

CCCC(C)c1ccn(C2CCN(c3cccc(OC)c3)C2=O)n1 (stereo not drawn) [Compound 99]
100: Plant response rating, Lambsquarters [2, 25] | Plant response rating, Lambsquarters [2, 26] | Plant response rating, Barnyardgrass [6, 25] | Plant response rating, Crabgrass [8, 25] | Plant response rating, Pigweed [9, 25] | Plant response rating, Foxtail, Giant [11, 25]
30: Plant response rating, Corn (corn (Zea mays) [5]; [25])
80: Rice plant response rating (rice (Oryza saliva) [24]; Rate 500 g/ha)
0: Plant response rating, Surinam grass [1, 26] | Plant response rating, Cocklebur [3, 25] | Plant response rating, Cocklebur [3, 26] | Plant response rating, Morningglory [4, 25] | Plant response rating, Morningglory [4, 26] | Plant response rating, Corn (corn (Zea mays) [5]; [26]) | Plant response rating, Barnyardgrass [6, 26] | Plant response rating, Velvetleaf [7, 25] | Plant response rating, Velvetleaf [7, 26] | Plant response rating, Crabgrass [8, 26] | Plant response rating, Pigweed [9, 26] | Plant response rating, Rice (rice (Oryza saliva) [10]; [26]) | Plant response rating, Foxtail, Giant [11, 26] | Plant response rating, Sunflower (Sunflower) | Plant response rating, Surinam grass [12, 29] | Plant response rating, Surinam grass [12, 28] | Plant response rating, Wild Oat (wild oat (Avena fatua); [28]) | Plant response rating, Blackgrass [13, 29] | Plant response rating, Blackgrass [13, 28] | Plant response rating, Morningglory [16, 28] | Plant response rating, Corn (corn (Zea mays) [17]; [29]) | Plant response rating, Corn (corn (Zea mays) [17]; [28]) | Plant response rating, Barnyardgrass [18, 29] | Plant response rating, Barnyardgrass [18, 28] | Plant response rating, Velvetleaf [19, 28] | Plant response rating, Crabgrass [20, 29] | Plant response rating, Crabgrass [20, 28] | Plant response rating, Pigweed [21, 28] | Plant response rating, Wheat [22, 28] | Plant response rating, Foxtail, Giant [23, 29] | Plant response rating, Foxtail, Giant [23, 28] | Plant response rating, Rice (rice (Oryza saliva) [24]; Rate 62 g/ha)
20: Plant response rating, Surinam grass [1, 25] | Plant response rating, Rice (rice (Oryza saliva) [10]; [25])
10: Plant response rating (0 to 100), Nightshade (Nightshade)
70: Plant response rating, Lambsquarters [14, 28]
50: Rice plant response rating (rice (Oryza saliva) [24]; Rate 250 g/ha) | Plant response rating, Rice (rice (Oryza saliva) [24]; Rate 125 g/ha)
